From the kinase profiling compilation of Christmann-Franck et al. (2016)

Assays:
Assay in all cases: KINOMEscan competition binding
CDK9 (human) = CDK9 (human) (UniProt P50750); settings: compound 1.0 µM
SRC (human) = SRC (human) (UniProt P12931); settings: compound 1.0 µM
[1] = test system: MET (human), P08581 [M1250T]; settings: compound 1.0 µM
ABL2 (human) = ABL2 (human) (UniProt P42684); settings: compound 1.0 µM
PIK3CA (human) = PIK3CA (human) (UniProt P42336); settings: compound 1.0 µM
DYRK1B (human) = DYRK1B (human) (UniProt Q9Y463); settings: compound 1.0 µM
ANKK1 (human) = ANKK1 (human) (UniProt Q8NFD2); settings: compound 1.0 µM
[2] = test system: PIK3CA (human), P42336 [E542K]; settings: compound 1.0 µM
GAK (human) = GAK (human) (UniProt O14976); settings: compound 1.0 µM
BMP2K (human) = BMP2K (human) (UniProt Q9NSY1); settings: for kinase still bound, per cent of control: compound 1.0 µM
MAP3K1 (human) = MAP3K1 (human) (UniProt Q13233); settings: compound 1.0 µM
MAPK15 (human) = MAPK15 (human) (UniProt Q8TD08); settings: compound 1.0 µM
STK38 (human) = STK38 (human) (UniProt Q15208); settings: compound 1.0 µM
EPHA4 (human) = EPHA4 (human) (UniProt P54764); settings: compound 1.0 µM
DCLK3 (human) = DCLK3 (human) (UniProt Q9C098); settings: compound 1.0 µM
MYLK (human) = MYLK (human) (UniProt Q15746); settings: compound 1.0 µM
MAP2K4 (human) = MAP2K4 (human) (UniProt P45985); settings: compound 1.0 µM
DSTYK (human) = DSTYK (human) (UniProt Q6XUX3); settings: compound 1.0 µM
CDK8 (human) = CDK8 (human) (UniProt P49336); settings: compound 1.0 µM
BLK (human) = BLK (human) (UniProt P51451); settings: compound 1.0 µM
BMX (human) = BMX (human) (UniProt P51813); settings: compound 1.0 µM
RIPK1 (human) = RIPK1 (human) (UniProt Q13546); settings: compound 1.0 µM
PRKCI (human) = PRKCI (human) (UniProt P41743); settings: compound 1.0 µM
CSNK2A1 (human) = CSNK2A1 (human) (UniProt P68400); settings: compound 1.0 µM
CASK (human) = CASK (human) (UniProt O14936); settings: compound 1.0 µM
ACVR1B (human) = ACVR1B (human) (UniProt P36896); settings: compound 1.0 µM
CSNK2A2 (human) = CSNK2A2 (human) (UniProt P19784); settings: compound 1.0 µM
EPHA5 (human) = EPHA5 (human) (UniProt P54756); settings: compound 1.0 µM
TLK1 (human) = TLK1 (human) (UniProt Q9UKI8); settings: compound 1.0 µM
BMPR1B (human) = BMPR1B (human) (UniProt O00238); settings: compound 1.0 µM
CAMK2B (human) = CAMK2B (human) (UniProt Q13554); settings: compound 1.0 µM
CSNK1G3 (human) = CSNK1G3 (human) (UniProt Q9Y6M4); settings: compound 1.0 µM
LATS1 (human) = LATS1 (human) (UniProt O95835); settings: compound 1.0 µM
GRK4 (human) = GRK4 (human) (UniProt P32298); settings: compound 1.0 µM
SNRK (human) = SNRK (human) (UniProt Q9NRH2); settings: compound 1.0 µM
[3] = test system: FLT3 (human), P36888 [D835Y]; settings: compound 1.0 µM
DCLK1 (human) = DCLK1 (human) (UniProt O15075); settings: compound 1.0 µM
MAP2K5 (human) = MAP2K5 (human) (UniProt Q13163); settings: compound 1.0 µM
MAK (human) = MAK (human) (UniProt P20794); settings: compound 1.0 µM
[4] = molecular target: TYK2 JH2 pseudokinase (human) (UniProt P29597); settings: compound 1.0 µM
MAP4K4 (human) = MAP4K4 (human) (UniProt O95819); settings: compound 1.0 µM
LIMK1 (human) = LIMK1 (human) (UniProt P53667); settings: compound 1.0 µM
[5] = test system: LRRK2 (human), Q5S007 [G2019S]; settings: compound 1.0 µM

BMP2K (human), sequence (Q9NSY1 whole entry, looked up): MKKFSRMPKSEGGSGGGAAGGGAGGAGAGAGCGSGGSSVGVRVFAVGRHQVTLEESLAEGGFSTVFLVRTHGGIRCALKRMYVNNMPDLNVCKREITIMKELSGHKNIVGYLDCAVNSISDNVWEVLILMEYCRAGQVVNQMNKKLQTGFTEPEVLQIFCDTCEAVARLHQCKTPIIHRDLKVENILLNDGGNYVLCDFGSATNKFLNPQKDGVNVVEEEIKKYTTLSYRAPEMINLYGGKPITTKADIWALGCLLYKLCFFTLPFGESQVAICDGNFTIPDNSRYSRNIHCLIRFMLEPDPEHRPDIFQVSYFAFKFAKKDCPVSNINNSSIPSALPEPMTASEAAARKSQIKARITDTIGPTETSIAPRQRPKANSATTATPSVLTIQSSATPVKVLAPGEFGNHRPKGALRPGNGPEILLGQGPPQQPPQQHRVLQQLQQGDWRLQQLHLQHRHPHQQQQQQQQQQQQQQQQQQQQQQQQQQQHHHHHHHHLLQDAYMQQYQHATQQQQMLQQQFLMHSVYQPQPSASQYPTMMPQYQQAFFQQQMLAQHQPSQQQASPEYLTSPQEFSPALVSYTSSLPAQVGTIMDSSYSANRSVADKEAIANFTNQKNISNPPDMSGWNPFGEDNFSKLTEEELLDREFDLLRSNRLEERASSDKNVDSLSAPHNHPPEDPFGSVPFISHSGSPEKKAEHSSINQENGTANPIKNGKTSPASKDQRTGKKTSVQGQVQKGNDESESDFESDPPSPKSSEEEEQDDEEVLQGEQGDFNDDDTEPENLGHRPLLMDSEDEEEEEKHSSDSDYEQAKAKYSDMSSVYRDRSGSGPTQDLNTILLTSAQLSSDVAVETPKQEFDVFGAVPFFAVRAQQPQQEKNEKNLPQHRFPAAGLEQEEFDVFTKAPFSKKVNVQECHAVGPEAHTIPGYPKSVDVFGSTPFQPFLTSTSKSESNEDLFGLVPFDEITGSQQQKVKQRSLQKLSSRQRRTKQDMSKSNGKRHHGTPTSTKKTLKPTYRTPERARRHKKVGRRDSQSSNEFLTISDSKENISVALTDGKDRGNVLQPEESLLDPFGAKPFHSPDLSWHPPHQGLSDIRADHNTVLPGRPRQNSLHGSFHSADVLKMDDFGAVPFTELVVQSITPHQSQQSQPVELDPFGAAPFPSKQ
PIK3CA (human), sequence (P42336 whole entry, looked up): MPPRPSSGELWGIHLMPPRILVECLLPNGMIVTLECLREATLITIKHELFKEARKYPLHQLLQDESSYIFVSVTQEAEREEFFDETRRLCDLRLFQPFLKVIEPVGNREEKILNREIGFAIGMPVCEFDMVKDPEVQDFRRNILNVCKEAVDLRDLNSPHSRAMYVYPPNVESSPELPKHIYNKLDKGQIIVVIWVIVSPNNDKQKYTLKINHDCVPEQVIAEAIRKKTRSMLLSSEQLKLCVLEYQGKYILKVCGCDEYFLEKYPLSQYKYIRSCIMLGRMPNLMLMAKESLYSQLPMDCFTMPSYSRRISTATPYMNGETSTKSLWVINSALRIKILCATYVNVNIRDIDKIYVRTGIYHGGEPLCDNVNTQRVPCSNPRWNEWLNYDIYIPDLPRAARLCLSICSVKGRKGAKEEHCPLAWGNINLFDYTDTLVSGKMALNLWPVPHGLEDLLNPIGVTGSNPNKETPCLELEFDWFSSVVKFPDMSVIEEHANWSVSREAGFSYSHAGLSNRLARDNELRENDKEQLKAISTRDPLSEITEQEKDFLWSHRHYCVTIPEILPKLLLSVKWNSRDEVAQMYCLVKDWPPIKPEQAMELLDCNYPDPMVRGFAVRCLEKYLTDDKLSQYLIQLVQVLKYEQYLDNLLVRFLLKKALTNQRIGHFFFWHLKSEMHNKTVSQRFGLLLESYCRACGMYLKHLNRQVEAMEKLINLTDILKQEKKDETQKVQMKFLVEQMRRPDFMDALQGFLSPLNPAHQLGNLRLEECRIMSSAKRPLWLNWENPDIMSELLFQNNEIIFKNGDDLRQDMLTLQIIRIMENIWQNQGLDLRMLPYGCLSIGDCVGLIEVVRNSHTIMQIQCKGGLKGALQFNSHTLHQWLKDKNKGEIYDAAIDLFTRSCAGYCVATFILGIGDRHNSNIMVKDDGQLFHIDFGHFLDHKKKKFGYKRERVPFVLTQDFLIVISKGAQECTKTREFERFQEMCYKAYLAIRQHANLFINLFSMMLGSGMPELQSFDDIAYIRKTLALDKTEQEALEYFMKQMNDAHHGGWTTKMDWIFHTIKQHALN
PIK3CA (human), P42336 [E542K], sequence (P42336 whole entry E542K, looked up): as the sequence (P42336 whole entry, looked up) above, with E542K counted along it
EPHA5 (human), sequence (P54756 whole entry, looked up): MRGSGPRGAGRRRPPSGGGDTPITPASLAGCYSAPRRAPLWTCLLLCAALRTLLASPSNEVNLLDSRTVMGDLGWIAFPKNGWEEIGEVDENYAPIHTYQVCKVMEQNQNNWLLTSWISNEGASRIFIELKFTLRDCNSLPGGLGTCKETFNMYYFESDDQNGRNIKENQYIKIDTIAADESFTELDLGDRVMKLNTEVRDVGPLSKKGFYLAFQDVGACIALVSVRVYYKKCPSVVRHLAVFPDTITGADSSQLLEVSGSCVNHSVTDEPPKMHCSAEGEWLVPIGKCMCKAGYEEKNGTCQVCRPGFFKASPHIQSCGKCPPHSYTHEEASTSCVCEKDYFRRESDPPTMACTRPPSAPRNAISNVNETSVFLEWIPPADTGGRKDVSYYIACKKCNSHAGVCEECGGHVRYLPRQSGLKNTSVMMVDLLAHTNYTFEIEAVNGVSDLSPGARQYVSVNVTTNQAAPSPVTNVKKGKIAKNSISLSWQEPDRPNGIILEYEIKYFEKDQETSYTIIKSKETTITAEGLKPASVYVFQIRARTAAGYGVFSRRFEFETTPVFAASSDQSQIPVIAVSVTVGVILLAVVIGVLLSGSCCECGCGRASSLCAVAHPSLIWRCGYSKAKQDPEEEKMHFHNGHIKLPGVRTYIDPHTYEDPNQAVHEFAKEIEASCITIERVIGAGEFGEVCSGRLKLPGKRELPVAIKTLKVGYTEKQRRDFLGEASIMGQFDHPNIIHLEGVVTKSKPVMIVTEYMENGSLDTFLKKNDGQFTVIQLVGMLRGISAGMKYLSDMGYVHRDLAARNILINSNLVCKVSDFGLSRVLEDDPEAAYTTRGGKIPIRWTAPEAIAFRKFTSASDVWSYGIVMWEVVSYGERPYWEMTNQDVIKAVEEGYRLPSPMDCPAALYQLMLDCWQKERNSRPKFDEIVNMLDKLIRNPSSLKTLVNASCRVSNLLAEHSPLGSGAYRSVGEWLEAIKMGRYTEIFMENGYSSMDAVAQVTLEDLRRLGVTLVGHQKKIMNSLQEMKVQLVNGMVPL
CAMK2B (human), sequence (Q13554 whole entry, looked up): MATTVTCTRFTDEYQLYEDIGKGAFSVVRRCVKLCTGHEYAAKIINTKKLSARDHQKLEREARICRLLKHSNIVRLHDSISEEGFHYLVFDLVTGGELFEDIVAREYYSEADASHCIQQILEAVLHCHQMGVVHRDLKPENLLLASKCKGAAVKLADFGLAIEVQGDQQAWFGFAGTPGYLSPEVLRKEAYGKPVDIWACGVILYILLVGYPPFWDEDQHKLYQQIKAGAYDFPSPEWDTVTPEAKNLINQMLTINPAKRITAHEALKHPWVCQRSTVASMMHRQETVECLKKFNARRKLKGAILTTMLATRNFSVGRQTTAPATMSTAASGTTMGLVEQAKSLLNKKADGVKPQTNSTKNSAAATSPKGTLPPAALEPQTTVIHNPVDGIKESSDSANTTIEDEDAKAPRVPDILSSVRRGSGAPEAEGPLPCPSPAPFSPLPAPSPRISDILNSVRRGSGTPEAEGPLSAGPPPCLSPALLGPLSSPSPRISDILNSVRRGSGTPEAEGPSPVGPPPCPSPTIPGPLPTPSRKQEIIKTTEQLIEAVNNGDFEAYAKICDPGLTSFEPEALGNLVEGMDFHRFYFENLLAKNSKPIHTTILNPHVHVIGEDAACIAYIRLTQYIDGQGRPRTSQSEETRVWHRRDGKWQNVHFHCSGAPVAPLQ
LIMK1 (human), sequence (P53667 whole entry, looked up): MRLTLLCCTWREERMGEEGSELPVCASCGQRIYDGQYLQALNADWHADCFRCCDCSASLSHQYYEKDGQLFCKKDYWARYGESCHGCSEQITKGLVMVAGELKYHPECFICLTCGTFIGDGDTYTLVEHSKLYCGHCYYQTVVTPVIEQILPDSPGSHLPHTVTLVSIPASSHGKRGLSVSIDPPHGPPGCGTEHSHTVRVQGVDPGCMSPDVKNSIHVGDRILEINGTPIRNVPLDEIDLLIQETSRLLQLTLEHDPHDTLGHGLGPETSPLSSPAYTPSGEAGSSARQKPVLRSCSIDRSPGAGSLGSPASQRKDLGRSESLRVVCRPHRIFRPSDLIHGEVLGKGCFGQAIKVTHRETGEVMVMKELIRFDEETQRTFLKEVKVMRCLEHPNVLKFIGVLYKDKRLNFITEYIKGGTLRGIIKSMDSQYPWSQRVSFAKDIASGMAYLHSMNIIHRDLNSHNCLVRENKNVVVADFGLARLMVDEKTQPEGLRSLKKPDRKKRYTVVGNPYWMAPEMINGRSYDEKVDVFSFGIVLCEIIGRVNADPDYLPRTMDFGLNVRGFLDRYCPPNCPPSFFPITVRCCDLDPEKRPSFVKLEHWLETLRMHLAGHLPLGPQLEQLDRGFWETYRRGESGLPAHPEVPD
MAP2K5 (human), sequence (Q13163 whole entry, looked up): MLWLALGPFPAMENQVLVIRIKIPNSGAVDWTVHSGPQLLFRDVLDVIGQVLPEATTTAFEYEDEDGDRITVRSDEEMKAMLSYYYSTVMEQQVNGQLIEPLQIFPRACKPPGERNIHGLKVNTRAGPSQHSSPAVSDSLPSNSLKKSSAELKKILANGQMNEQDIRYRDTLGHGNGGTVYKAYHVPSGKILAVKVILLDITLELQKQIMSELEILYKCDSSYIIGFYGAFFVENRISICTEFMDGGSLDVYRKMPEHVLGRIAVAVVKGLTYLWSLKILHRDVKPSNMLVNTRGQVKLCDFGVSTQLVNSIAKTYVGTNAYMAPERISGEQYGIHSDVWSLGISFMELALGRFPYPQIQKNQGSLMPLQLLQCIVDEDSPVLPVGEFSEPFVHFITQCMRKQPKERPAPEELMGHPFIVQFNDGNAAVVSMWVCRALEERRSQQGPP

**Q.** What does the source list for `CN(C)C/C=C/C(=O)Nc1cccc(C(=O)Nc2ccc(Nc3nccc(-c4cccnc4)n3)cc2)c1`?
**A.** kinase still bound, per cent of control (CDK9 (human)): 55%; kinase still bound, per cent of control (SRC (human)): 88%; kinase still bound, per cent of control [1]: 100%; kinase still bound, per cent of control (ABL2 (human)): 79%; kinase still bound, per cent of control (PIK3CA (human)): 75%; kinase still bound, per cent of control (DYRK1B (human)): 52%; kinase still bound, per cent of control (ANKK1 (human)): 50%; kinase still bound, per cent of control [2]: 82%; kinase still bound, per cent of control (GAK (human)): 33%; Kd (BMP2K (human)): 190 nM; kinase still bound, per cent of control (BMP2K (human)): 3.8%; kinase still bound, per cent of control (MAP3K1 (human)): 85%; kinase still bound, per cent of control (MAPK15 (human)): 7.1%; kinase still bound, per cent of control (STK38 (human)): 100%; kinase still bound, per cent of control (EPHA4 (human)): 94%; kinase still bound, per cent of control (DCLK3 (human)): 100%; kinase still bound, per cent of control (MYLK (human)): 100%; kinase still bound, per cent of control (MAP2K4 (human)): 78%; kinase still bound, per cent of control (DSTYK (human)): 100%; kinase still bound, per cent of control (CDK8 (human)): 68%; kinase still bound, per cent of control (BLK (human)): 100%; kinase still bound, per cent of control (BMX (human)): 70%; kinase still bound, per cent of control (RIPK1 (human)): 18%; kinase still bound, per cent of control (PRKCI (human)): 100%; kinase still bound, per cent of control (CSNK2A1 (human)): 17%; kinase still bound, per cent of control (CASK (human)): 100%; kinase still bound, per cent of control (ACVR1B (human)): 86%; kinase still bound, per cent of control (CSNK2A2 (human)): 13%; kinase still bound, per cent of control (EPHA5 (human)): 96%; kinase still bound, per cent of control (TLK1 (human)): 92%; kinase still bound, per cent of control (BMPR1B (human)): 43%; kinase still bound, per cent of control (CAMK2B (human)): 82%; kinase still bound, per cent of control (CSNK1G3 (human)): 66%; kinase still bound, per cent of control (LATS1 (human)): 100%; kinase still bound, per cent of control (GRK4 (human)): 32%; kinase still bound, per cent of control (SNRK (human)): 90%; kinase still bound, per cent of control [3]: 13%; kinase still bound, per cent of control (DCLK1 (human)): 96%; kinase still bound, per cent of control (MAP2K5 (human)): 6.8%; kinase still bound, per cent of control (MAK (human)): 5.6%; kinase still bound, per cent of control [4]: 5.8%; kinase still bound, per cent of control (MAP4K4 (human)): 40%; kinase still bound, per cent of control (LIMK1 (human)): 71%; kinase still bound, per cent of control [5]: 51%

**Q.** Which results are given for `Cc1cc(NC(=O)c2cccc(NC(=O)/C=C/CN(C)C)c2)ccc1Nc1nccc(-c2cccnc2)n1`?
**A.** kinase still bound, per cent of control (CDK9 (human)): 100%; kinase still bound, per cent of control (SRC (human)): 87%; kinase still bound, per cent of control [1]: 6.2%; kinase still bound, per cent of control (ABL2 (human)): 97%; kinase still bound, per cent of control (PIK3CA (human)): 100%; kinase still bound, per cent of control (DYRK1B (human)): 100%; kinase still bound, per cent of control (ANKK1 (human)): 75%; kinase still bound, per cent of control [2]: 100%; kinase still bound, per cent of control (GAK (human)): 92%; kinase still bound, per cent of control (BMP2K (human)): 94%; kinase still bound, per cent of control (MAP3K1 (human)): 100%; kinase still bound, per cent of control (MAPK15 (human)): 100%; kinase still bound, per cent of control (STK38 (human)): 97%; kinase still bound, per cent of control (EPHA4 (human)): 100%; kinase still bound, per cent of control (DCLK3 (human)): 100%; kinase still bound, per cent of control (MYLK (human)): 93%; kinase still bound, per cent of control (MAP2K4 (human)): 70%; kinase still bound, per cent of control (DSTYK (human)): 100%; kinase still bound, per cent of control (CDK8 (human)): 51%; kinase still bound, per cent of control (BLK (human)): 65%; kinase still bound, per cent of control (BMX (human)): 100%; kinase still bound, per cent of control (RIPK1 (human)): 51%; kinase still bound, per cent of control (PRKCI (human)): 93%; kinase still bound, per cent of control (CSNK2A1 (human)): 57%; kinase still bound, per cent of control (CASK (human)): 100%; kinase still bound, per cent of control (ACVR1B (human)): 88%; kinase still bound, per cent of control (CSNK2A2 (human)): 39%; kinase still bound, per cent of control (EPHA5 (human)): 100%; kinase still bound, per cent of control (TLK1 (human)): 98%; kinase still bound, per cent of control (BMPR1B (human)): 92%; kinase still bound, per cent of control (CAMK2B (human)): 100%; kinase still bound, per cent of control (CSNK1G3 (human)): 100%; kinase still bound, per cent of control (LATS1 (human)): 91%; kinase still bound, per cent of control (GRK4 (human)): 96%; kinase still bound, per cent of control (SNRK (human)): 100%; kinase still bound, per cent of control [3]: 58%; kinase still bound, per cent of control (DCLK1 (human)): 100%; kinase still bound, per cent of control (MAP2K5 (human)): 67%; kinase still bound, per cent of control (MAK (human)): 100%; kinase still bound, per cent of control [4]: 80%; kinase still bound, per cent of control (MAP4K4 (human)): 92%; kinase still bound, per cent of control (LIMK1 (human)): 74%; kinase still bound, per cent of control [5]: 67%
